Data reported in ChEMBL document CHEMBL1155108, “SAR, pharmacokinetics, safety, and efficacy of glucokinase activating 2-(4-sulfonylphenyl)-N-thiazol-2-ylacetamides: discovery of PSN-GK1” (J Med Chem, 2008).
pEC50: −log10 of the molar value. Values after ≈ are worked out from the molar mass of the structure shown. Active and inactive are the calls of the source. No cut-off for these calls is given here.

Columns and labels:
[1] = Plasma concentration in C57B1/6 mouse at 10 mg/kg, po after 0.5 hrs; format: ADME, organism-based; parameters: dose 10 mg/kg, route oral
Hexokinase-4 = target: T1, Hexokinase-4 (Homo sapiens, UniProt P35557); assay: Activation of GST fused human liver glucokinase assessed as generation of NADPH by G6PDH coupled assay
T1 sequence (P35557 whole entry): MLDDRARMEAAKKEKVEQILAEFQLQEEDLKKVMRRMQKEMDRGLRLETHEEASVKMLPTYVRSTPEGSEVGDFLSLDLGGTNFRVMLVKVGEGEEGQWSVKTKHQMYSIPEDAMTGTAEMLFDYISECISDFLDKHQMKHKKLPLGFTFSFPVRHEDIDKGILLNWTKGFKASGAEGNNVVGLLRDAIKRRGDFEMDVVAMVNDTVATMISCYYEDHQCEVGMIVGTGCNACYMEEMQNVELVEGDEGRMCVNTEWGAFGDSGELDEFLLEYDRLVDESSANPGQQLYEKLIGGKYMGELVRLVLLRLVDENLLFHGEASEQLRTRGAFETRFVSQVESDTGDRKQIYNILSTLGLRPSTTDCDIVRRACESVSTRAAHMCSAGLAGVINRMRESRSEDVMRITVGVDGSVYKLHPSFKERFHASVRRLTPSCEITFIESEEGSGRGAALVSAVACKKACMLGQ

[2] = Metabolic stability in mouse liver microsomes; format: ADME, Microsome
[3] = Aqueous solubility at pH 6.5 buffer; format: physicochemical
[4] = Plasma concentration in C57B1/6 mouse at 5 mg/kg, po after 0.5 hrs; format: ADME, organism-based; parameters: dose 5 mg/kg, route oral
[5] = AUC (0 to 24 hrs) in Sprague-Dawley rat at 250 mg/kg, po; format: ADME, organism-based; parameters: time < 24 hr, dose 250 mg/kg, route oral; details: plasma
[6] = AUC (0 to infinity) in Sprague-Dawley rat at 1 mg/5 mL/kg, iv in 40% DMSO; format: ADME, organism-based; parameters: dose 5 mL/kg, time infinity, route intravenous; details: plasma, 1 mg/kg
[7] = Half life in Sprague-Dawley rat at 5 mg/10 mL/kg, po in 10% aqueous gelucire 44/14; format: ADME, organism-based; details: in vivo, 5 mg/kg
[8] = Oral bioavailability in Sprague-Dawley rat at 5 mg/10 mL/kg in 10% aqueous gelucire 44/14; format: ADME, organism-based; details: in vivo, 5 mg/kg
Rattus norvegicus [9] = assay: Reduction in blood glucose level in fasted Sprague-Dawley rat at 10 mg/kg, po for 360 mins; format: functional, organism-based; parameters: dose 10 mg/kg
[10] = Tmax in Sprague-Dawley rat at 5 mg/10 mL/kg, po in 10% aqueous gelucire 44/14; format: ADME, organism-based; details: in vivo, 5 mg/kg
[11] = Cmax in Sprague-Dawley rat at 5 mg/10 mL/kg, po in 10% aqueous gelucire 44/14; format: ADME, organism-based; details: in vivo, 5 mg/kg
Rattus norvegicus [12] = assay: Toxicity in Sprague-Dawley rat at 250 mg/kg, po; format: organism-based; parameters: dose 250 mg/kg, route oral; details: in vivo
[13] = Half life in Sprague-Dawley rat at 1 mg/5 mL/kg, iv in 40% DMSO; format: ADME, organism-based; details: in vivo, 1 mg/kg
[14] = AUC (0 to infinity) in Sprague-Dawley rat at 5 mg/10 mL/kg, po in 10% aqueous gelucire 44/14; format: ADME, organism-based; parameters: dose 10 mL/kg, time infinity, route oral; details: plasma, 5 mg/kg
[15] = Cmax in Sprague-Dawley rat at 250 mg/kg, po; format: ADME, organism-based; parameters: dose 250 mg/kg, route oral; details: in vivo
[16] = Volume of distribution at steady state in Sprague-Dawley rat at 1 mg/5 mL/kg, iv in 40% DMSO; format: ADME, organism-based; details: in vivo, 1 mg/kg, read-out: Vdss
[17] = Clearance in Sprague-Dawley rat at 1 mg/5 mL/kg, iv in 40% DMSO; format: ADME, organism-based; details: in vivo, 1 mg/kg
Rattus norvegicus [18] = assay: Acute toxicity in rat at >=100 mg/kg, po; format: organism-based; details: in vivo

| SMILES | concentration at 0.5 h [1] | pEC50 (Hexokinase-4) | half-life [2] | solubility [3] | further results |
| --- | --- | --- | --- | --- | --- |
| O=C(Nc1nccs1)/C(=C/c1cccs1)c1ccccc1 | – | 4.97 | – | – | – |
| CS(=O)(=O)c1ccc(C(=Cc2cccs2)C(=O)Nc2nccs2)cc1 | – | 6.25 | – | – | – |
| O=C(Nc1cnccn1)/C(=C/c1cccs1)c1ccccc1 | – | 4.58 | – | – | – |
| O=C(Nc1ncc(F)s1)[C@H](CC1CCOCC1)c1ccc(S(=O)(=O)C2CCC2)cc1 | – | 6.85 | 27 min | 60 µg/mL (≈ 133 µM) | concentration at 0.5 h [4]: 1180 ng/mL |
| O=C(Nc1nccs1)[C@H](CC1CCOCC1)c1ccc(S(=O)(=O)C2CC2)cc1 | 1860 ng/mL | 6.24 | 144 min | 147 µg/mL (≈ 350 µM) | Activity (Rattus norvegicus [18]): Toxic |
| O=C(Nc1ncc(F)s1)[C@H](CC1CCOCC1)c1ccc(S(=O)(=O)C2CCCC2)cc1 | 168 ng/mL | 7.15 | 16 min | 24 µg/mL (≈ 51.4 µM) | – |
| CS(=O)(=O)c1ccc([C@@H](CC2CCOCC2)C(=O)Nc2nccs2)cc1 | 5150 ng/mL | 5.46 | > 200 min | 410 µg/mL (≈ 1040 µM) | Activity (Rattus norvegicus [18]): Toxic |

The next lines start with results.

| concentration at 0.5 h [1] | pEC50 (Hexokinase-4) | half-life [2] | solubility [3] | SMILES | further results |
| --- | --- | --- | --- | --- | --- |
| 8280 ng/mL | 5.84 | 125 min | 298 µg/mL (≈ 722 µM) | CS(=O)(=O)c1ccc([C@@H](CC2CCOCC2)C(=O)Nc2ncc(F)s2)cc1 | – |
| 5010 ng/mL | – | 90 min | 58 µg/mL (≈ 132 µM) | O=C(Nc1ncc(F)s1)[C@H](CC1CCOCC1)c1ccc(S(=O)(=O)C2CC2)cc1 | AUC(0-t) at 24 h [5]: 898 µg·h/mL; AUC(0-inf) [6]: 1660 ng·h/mL; half-life [7]: 204 min; bioavailability [8]: 129%; Activity (Rattus norvegicus [9]): Active; Tmax [10]: 1 h; Cmax [11]: 1130 ng/mL; Activity (Rattus norvegicus [12]): Non-toxic; half-life [13]: 192 min; AUC(0-inf) [14]: 10700 ng·h/mL; Cmax [15]: 49200 ng/mL; Vd [16]: 2.1 L/kg; clearance [17]: 10 mL/min/kg |
| – | 5.05 | > 200 min | 97 µg/mL (≈ 246 µM) | CS(=O)(=O)c1ccc(C(CC2CCOCC2)C(=O)Nc2nccs2)cc1 (stereo not drawn) | – |
| 1640 ng/mL | 6.24 | 53 min | 40 µg/mL (≈ 92 µM) | Cc1cnc(NC(=O)[C@H](CC2CCOCC2)c2ccc(S(=O)(=O)C3CC3)cc2)s1 | – |
| – | < 5.00 | – | – | CS(=O)(=O)c1ccc([C@H](CC2CCOCC2)C(=O)Nc2nccs2)cc1 | – |
| 3680 ng/mL | 5.64 | > 200 min | 13 µg/mL (≈ 33.1 µM) | CS(=O)(=O)c1ccc(/C(=C\C2CCOCC2)C(=O)Nc2nccs2)cc1 | – |
